From patent US20080206761A1, “Ex Vivo Gene Expression in Whole Blood as a Model of Assessment of Individual Variation to Dietary Supplements” (priority 2005, published 2008)

Tests used:
IL-2 mRNA = test: PHA-induced IL-2 mRNA expression in heparinized whole blood ex vivo; format: cell-based, human; conditions: supplement 30 min, concentrations per footnote
Protocol: (§1) In this embodiment, phytohemagglutinin-induced gene expression of interleukin-2 (IL-2), interleukin-4 (IL-4), and tumor necrosis factor-α (TNF-α) were quantitated in the following manner. Fifty μL of heparinized whole blood was incubated with various dietary supplements for a period of 30 minutes. The following supplements were employed: vitamins A, C, and D, epigallocatechin gallate (from green tea), genistein (from soy), and curcumin (from the spice turmeric). Vitamin A is known to stimulate the immune system. […] Vitamin D appears to have protective effects against certain cancers. Epigallocatechin gallate is a powerful antioxidant, appears to reduce the multidrug resistance found in cancer cells, and preferentially induces apoptosis in neoplastic cells. Genistein has been found in some studies to have anticarcinogenic activity; possible mechanisms of action include upregulation of apoptosis, inhibition of angiogenesis, inhibition of DNA topoisomerase II and inhibition of protein tyrosine kinases. Curcumin has proapoptotic effects in neoplastic cells and interferes with the activity of the transcription factor NF-κB, which is often highly overexpressed in such cells.
(§2) After incubation with the dietary supplement, 100 μg/mL phytohemagglutinin (PHA) was added and incubation was continued for an additional 2 hours at 37° C. The concentration of each dietary supplement (see Table I, note) was slightly higher than reported blood levels. Then mRNA was purified, cDNA was synthesized, and the levels of IL-2, IL-4, and TNF-α were quantitated by TaqMan real time polymerase chain reaction (PCR) (see Holland, et al., “Detection of specific polymerase chain reaction product by utilizing the 5′ to 3′ exonuclease activity of Thermus aquaticus DNA polymerase,” Proc Natl Acad Sci USA 1991; 88: 7276-80), as described below.
(§3) The mRNA and cDNA were prepared from the whole blood that was exposed to the dietary components, as well as the whole blood which remained unexposed. In brief, home-made 96-well filterplates were placed over collection plates, and 150 μl 5 mM Tris, pH 7.4, was applied. Following centrifugation at 120×g for 1 min at 4° C., 50 μl of blood samples were applied to each well and immediately centrifuged at 120×g for 2 min at 4° C., followed by washing of each well with 300 μl PBS once with centrifugation at 2000×g for 5 min at 4° C. Then, 60 μl stock lysis buffer, containing for example 0.5% N-Lauroylsarcosine, 4×SSC, 10 mM Tris HCl, pH 7.4, 1 mM EDTA, 0.1% IGEPAL CA-630, and 1.791 M guanidine thiocyanate, supplemented with 1% 2-mercaptoethanol (Bio Rad, Hercules, Calif., USA), 0.5 mg/ml proteinase K (Pierce, Rockford, Ill., USA), 0.1 mg/ml salmon sperm DNA (5 Prime Eppendorf/Brinkmann, Westbury, N.Y., USA), 0.1 mg/ml E. coli tRNA (Sigma), a cocktail of 10 mM each of the specific reverse primers shown in Table 2, and standard RNA34 oligonucleotides, were applied to the filterplates, followed by incubation at 37° C. for 10 min. The filterplates were then placed over oligo(dT)-immobilized microplates (GenePlate, RNAture), and centrifuged at 2000×g for 5 min at 4° C. Following overnight storage at 4° C., the microplates were washed with 100 μl plain lysis buffer 3 times, followed by 150 μl of wash buffer (0.5 M NaCl, 10 mM Tris, pH 7.4, 1 mM EDTA) 3 times at 4° C. The cDNA was directly synthesized in each well by adding 30 μl of buffer containing 1×RT-buffer, 1.25 mM each of dNTP, 4 units rRNasin, and 80 units of MMLV reverse transcriptase (Promega) (without primers), and incubation at 37° C. for 2 hours. The specific primer-primed cDNA existed in solution, and oligo(dT)-primed cDNA stayed immobilized in the microplate. […]

IL-4 mRNA = test: PHA-induced IL-4 mRNA expression in heparinized whole blood ex vivo; format: cell-based, human; conditions: for ΔΔCt (mean ± standard deviation, n = 3), IL-4 mRNA: supplement 30 min, then 100 μg/mL PHA 2 h, concentrations per footnote
Protocol: as §1, §2, §3

CC1=C(/C=C/C(C)=C/C=C/C(C)=C/CO)C(C)(C)CCC1 [VA, vitamin A]
ΔΔCt (mean ± standard deviation, n = 3), IL-2 mRNA (IL-2 mRNA; Subject 1, then 100 μg/mL PHA 2 h 37° C., negative = increased expression): −0.98 ± 0.04 | ΔΔCt (mean ± standard deviation, n = 3), IL-2 mRNA (IL-2 mRNA; Subject 2, then 100 μg/mL PHA 2 h): −1.61 ± 0.32 | ΔΔCt (mean ± standard deviation, n = 3), IL-2 mRNA (IL-2 mRNA; Subject 3, then 100 μg/mL PHA 2 h): 0.49 ± 0.33 | ΔΔCt (mean ± standard deviation, n = 3), IL-2 mRNA (IL-2 mRNA; Subject 4, then 100 μg/mL PHA 2 h): −0.29 ± 0.21 | ΔΔCt (mean ± standard deviation, n = 3), IL-2 mRNA (IL-2 mRNA; Subject 5, then 100 μg/mL PHA 2 h): −1.16 ± 0.02 | ΔΔCt (mean ± standard deviation, n = 3), IL-2 mRNA (IL-2 mRNA; Subject 6, then 100 μg/mL PHA 2 h): −0.26 ± 0.20 | ΔΔCt (mean ± standard deviation, n = 3), IL-2 mRNA (IL-2 mRNA; Subject 7, then 100 μg/mL PHA 2 h): −0.66 ± 0.35 | ΔΔCt (mean ± standard deviation, n = 3), IL-4 mRNA (IL-4 mRNA; Subject 1): −2.14 ± 0.08 | ΔΔCt (mean ± standard deviation, n = 3), IL-4 mRNA (IL-4 mRNA; Subject 2): −1.56 ± 0.34 | ΔΔCt (mean ± standard deviation, n = 3), IL-4 mRNA (IL-4 mRNA; Subject 3): −0.15 ± 0.40 | ΔΔCt (mean ± standard deviation, n = 3), IL-4 mRNA (IL-4 mRNA; Subject 4): −0.98 ± 0.41 | ΔΔCt (mean ± standard deviation, n = 3), IL-4 mRNA (IL-4 mRNA; Subject 5): −1.24 ± 0.13 | ΔΔCt (mean ± standard deviation, n = 3), IL-4 mRNA (IL-4 mRNA; Subject 6): −0.65 ± 0.09 | ΔΔCt (mean ± standard deviation, n = 3), IL-4 mRNA (IL-4 mRNA; Subject 7): −1.15 ± 0.39 | effect on PHA-induced IL-4 expression, in words (IL-4 mRNA; summary over 7 subjects of Table I): enhanced IL-4 expression, with 1-3 exceptions
